{"source": "paper PMC11285948", "about": "“The effects of CYP2B6 inactivators on the metabolism of ciprofol” (PLOS ONE, 2024)", "key": {"[1]": {"tested_on": "ciprofol metabolism in rat liver microsomes (RLMs)", "assay": "Effects of psoralen and clopidogrel on ciprofol metabolism in RLM incubation system (substrate elimination, HPLC-MS/MS)", "format": "in vitro ADME", "conditions": "for IC50: 10 min preincubation, n = 3; for Relative residual activity (ciprofol metabolism): samples 1-3 and Mean; for degree of inhibitory effect on ciprofol metabolism: grading after ref 23", "method": "(§1) The volume of the incubation system was 200 μL and included 2 μL of substrate (ciprofol), 8 μL of rat liver microsomes (RLMs) or 6 μL of human liver microsomes (HLMs), 12 μL of NADPH generation system of solution (solution A 10 μL, solution B 2 μL), and the remaining volume was PBS. The incubation was performed in a water bath at a constant temperature of 37°C, and each sample was incubated three times in parallel.\n(§2) The incubation system was removed from the water bath, and the reaction was terminated immediately by adding 800 μL of reaction termination solution (acetonitrile solution containing 5 μg·mL^-1 D6-ciprofol at 4°C). The mixture was vortexed for 2 min and centrifuged for 15 min, after which the supernatant was transferred to an autosampler vial for HPLC-MS/MS detection.\n(§3) The incubation system was prepared according to the optimal incubation conditions, and different concentrations of psoralen or clopidogrel solution were added to the blank incubation system at concentrations of 0, 5, 12.5, 25, 50, 75, 100, 150, and 200 μmol·L^-1 and 0, 0.2, 0.5, 1, 2, 5, 10, 25, and 50 μmol·L^-1, respectively. The incubation system was preincubated in a water bath (37°C) for 10 min, and ciprofol was added to the system and subsequently incubated subsequently. The effects of psoralen and clopidogrel on the metabolism of ciprofol were investigated based on ΔC.\n(§4) The substrate elimination method was employed in this study, and GraphPad Prism 8.0.2 software was used for statistical processing, including determination of the kinetic parameters of ciprofol metabolism and the IC50 values of psoralen and clopidogrel for ciprofol metabolism. The maximum velocity (Vmax), Michaelis constant (Km) and intrinsic clearance (CLint) were calculated using the […]: V=Vmax×[S]/Km+[S] CLint=Vmax/Km"}, "[2]": {"tested_on": "ciprofol metabolism in human liver microsomes (HLMs)", "assay": "Effects of psoralen and clopidogrel on ciprofol metabolism in HLM incubation system (substrate elimination, HPLC-MS/MS)", "format": "in vitro ADME", "conditions": "for IC50: 10 min preincubation, n = 3; for Relative residual activity (ciprofol metabolism): samples 1-3 and Mean; for degree of inhibitory effect on ciprofol metabolism: grading after ref 23", "method": "as §1, §2, §3, §4"}, "SD rats": {"tested_on": "SD rats", "assay": "Duration of loss of righting reflex (LORR) after ciprofol injection in rats", "format": "in vivo, rat", "conditions": "psoralen 27 mg·kg^-1 or clopidogrel 7.5 mg·kg^-1 gavage daily 7 d, then ciprofol 2.4 mg·kg^-1 i.v.", "method": "Twenty-four SD rats were randomly and equally divided into three groups: the control group, psoralen group and clopidogrel group. The administration scheme was as follows: the control group received 0.5% carboxy methyl cellulose by gavage (1 mL·200 g^-1), the psoralen group received 27 mg·kg^-1 psoralen by gavage, and the clopidogrel group was gavaged with 7.5 mg·kg^-1 clopidogrel. […] All rats were treated once daily for seven days. Each rat was injected with 2.4 mg·kg^-1 ciprofol via the tail vein 12 h after the end of dosing on Day 7. Rats that received ciprofol injection were placed on a flat and soft insulation pad. Timekeeping began when the rats were in the supine position and lost the righting reflex and ended when the rats could turn to the prone position successfully. The duration of loss of righting reflex (LORR) in each rat was measured. During this period, approximately 300 μL of blood was collected from the inner canthus at 2, 4, 8, 12, 16, 20, 30, 45, and 60 min after ciprofol administration, and the plasma was separated. The plasma was processed and measured as described in Section 2.4.3, and DAS 2.0 software and a noncompartmental model were used to analyse the pharmacokinetic parameters.\nIBM SPSS Statistics 27 software was used to analyse the main pharmacokinetic parameters, and GraphPad Prism 8.0.2 software was used for graphical visualization. […]"}, "[3]": {"tested_on": "recombinant human CYP2B6 enzyme", "conditions": "cited from earlier work; for inhibition of recombinant human CYP2B6 enzyme activity: psoralen: ref Ji et al. 13, clopidogrel (bupropion as substrate): ref 31, 32"}, "ciprofol metabolism": {"tested_on": "ciprofol metabolism", "set-up": "method as in PMID 37309663", "conditions": "clinical trials NCT03758469, NCT04145583, NCT05181007; cited from earlier work"}}, "note": "Several values for one entry are separate records, joined by “and”; a condition that tells them apart may be missing. Equal entries are not always repeated."}
{"smiles": "COC(=O)[C@H](c1ccccc1Cl)N1CCc2sccc2C1", "note": "[clopidogrel]", "values": [{"measurement": "IC50", "setting": "[1]", "value": 6.38, "unit": "µM"}, {"measurement": "Relative residual activity (ciprofol metabolism)", "setting": "[1]; Cclopidogrel 0.20 μM", "value": "96.32% and 84.60% and 95.79%"}, {"measurement": "Relative residual activity (ciprofol metabolism)", "setting": "[1]; Cclopidogrel 0.50 μM", "value": "90.44% and 83.76% and 96.63%"}, {"measurement": "Relative residual activity (ciprofol metabolism)", "setting": "[1]; Cclopidogrel 1.00 μM", "value": "88.66% and 86.92% and 76.64%"}, {"measurement": "Relative residual activity (ciprofol metabolism)", "setting": "[1]; Cclopidogrel 2.00 μM", "value": "75.16% and 58.26% and 69.88%"}, {"measurement": "Relative residual activity (ciprofol metabolism)", "setting": "[1]; Cclopidogrel 5.00 μM", "value": "50.35% and 43.15% and 60.40%"}, {"measurement": "Relative residual activity (ciprofol metabolism)", "setting": "[1]; Cclopidogrel 10.00 μM", "value": "42.20% and 50.96% and 39.90%"}, {"measurement": "Relative residual activity (ciprofol metabolism)", "setting": "[1]; Cclopidogrel 25.00 μM", "value": "32.17% and 28.83% and 23.03%"}, {"measurement": "Relative residual activity (ciprofol metabolism)", "setting": "[1]; Cclopidogrel 50.00 μM", "value": "11.08% and 18.95% and 13.85%"}, {"measurement": "degree of inhibitory effect on ciprofol metabolism", "setting": "[1]", "value": "moderate inhibitory effects"}, {"measurement": "IC50", "setting": "[2]", "value": 2.56, "unit": "µM"}, {"measurement": "Relative residual activity (ciprofol metabolism)", "setting": "[2]; Cclopidogrel 0.20 μM", "value": "88.53% and 84.40% and 91.91%"}, {"measurement": "Relative residual activity (ciprofol metabolism)", "setting": "[2]; Cclopidogrel 0.50 μM", "value": "70.42% and 76.69% and 80.24%"}, {"measurement": "Relative residual activity (ciprofol metabolism)", "setting": "[2]; Cclopidogrel 1.00 μM", "value": "66.15% and 57.16% and 70.67%"}, {"measurement": "Relative residual activity (ciprofol metabolism)", "setting": "[2]; Cclopidogrel 2.00 μM", "value": "58.07% and 44.78% and 46.16%"}, {"measurement": "Relative residual activity (ciprofol metabolism)", "setting": "[2]; Cclopidogrel 5.00 μM", "value": "36.69% and 31.97% and 37.99%"}, {"measurement": "Relative residual activity (ciprofol metabolism)", "setting": "[2]; Cclopidogrel 10.00 μM", "value": "32.45% and 25.93% and 29.26%"}, {"measurement": "Relative residual activity (ciprofol metabolism)", "setting": "[2]; Cclopidogrel 25.00 μM", "value": "23.23% and 27.69% and 23.00%"}, {"measurement": "Relative residual activity (ciprofol metabolism)", "setting": "[2]; Cclopidogrel 50.00 μM", "value": "19.78% and 11.54% and 13.21%"}, {"measurement": "degree of inhibitory effect on ciprofol metabolism", "setting": "[2]", "value": "moderate inhibitory effects"}, {"measurement": "prolongation of duration of LORR compared with control group", "setting": "SD rats", "value": 23.0, "unit": "%"}, {"measurement": "inhibition of recombinant human CYP2B6 enzyme activity", "setting": "[3]", "value": "strongly inhibits"}, {"measurement": "inactivation potency relative to its thiolactone metabolite", "setting": "[3]; recombinant human CYP2B6, bupropion as substrate", "value": 11, "unit": "times"}]}
{"smiles": "Cc1cccc(Nc2ccccc2C(=O)O)c1C", "note": "[mefenamic acid]", "values": [{"measurement": "clinical effect on ciprofol metabolism", "setting": "ciprofol metabolism", "value": "no clinical effect"}]}
{"smiles": "O=c1ccc2cc3ccoc3cc2o1", "note": "[psoralen]", "values": [{"measurement": "IC50", "setting": "[1]", "value": 63.3, "unit": "µM"}, {"measurement": "Relative residual activity (ciprofol metabolism)", "setting": "[1]; Cpsoralen 5 μM", "value": "93.09% and 97.46% and 90.99%"}, {"measurement": "Relative residual activity (ciprofol metabolism)", "setting": "[1]; Cpsoralen 5 μM, mean", "value": 93.85, "unit": "%"}, {"measurement": "Relative residual activity (ciprofol metabolism)", "setting": "[1]; Cpsoralen 12.5 μM", "value": "88.25% and 94.23% and 84.23%"}, {"measurement": "Relative residual activity (ciprofol metabolism)", "setting": "[1]; Cpsoralen 12.5 μM, mean", "value": 88.90, "unit": "%"}, {"measurement": "Relative residual activity (ciprofol metabolism)", "setting": "[1]; Cpsoralen 25 μM", "value": "79.18% and 75.1% and 87.55%"}, {"measurement": "Relative residual activity (ciprofol metabolism)", "setting": "[1]; Cpsoralen 25 μM, mean", "value": 80.61, "unit": "%"}, {"measurement": "Relative residual activity (ciprofol metabolism)", "setting": "[1]; Cpsoralen 50 μM", "value": "57.26% and 67.87% and 65.65%"}, {"measurement": "Relative residual activity (ciprofol metabolism)", "setting": "[1]; Cpsoralen 50 μM, mean", "value": 63.59, "unit": "%"}, {"measurement": "Relative residual activity (ciprofol metabolism)", "setting": "[1]; Cpsoralen 75 μM", "value": "32.92% and 44.27% and 51.97%"}, {"measurement": "Relative residual activity (ciprofol metabolism)", "setting": "[1]; Cpsoralen 75 μM, mean", "value": 43.05, "unit": "%"}, {"measurement": "Relative residual activity (ciprofol metabolism)", "setting": "[1]; Cpsoralen 100 μM", "value": "29.87% and 38.51% and 22.31%"}, {"measurement": "Relative residual activity (ciprofol metabolism)", "setting": "[1]; Cpsoralen 100 μM, mean", "value": 30.23, "unit": "%"}, {"measurement": "Relative residual activity (ciprofol metabolism)", "setting": "[1]; Cpsoralen 150 μM", "value": "15.05% and 20.24% and 25.14%"}, {"measurement": "Relative residual activity (ciprofol metabolism)", "setting": "[1]; Cpsoralen 150 μM, mean", "value": 20.14, "unit": "%"}, {"measurement": "Relative residual activity (ciprofol metabolism)", "setting": "[1]; Cpsoralen 200 μM", "value": "14.67% and 20.19% and 12.3%"}, {"measurement": "Relative residual activity (ciprofol metabolism)", "setting": "[1]; Cpsoralen 200 μM, mean", "value": 15.72, "unit": "%"}, {"measurement": "degree of inhibitory effect on ciprofol metabolism", "setting": "[1]", "value": "mild inhibitory effects"}, {"measurement": "IC50", "setting": "[2]", "value": 34, "unit": "µM"}, {"measurement": "Relative residual activity (ciprofol metabolism)", "setting": "[2]; Cpsoralen 5 μM", "value": "85.57% and 90.39% and 83.88%"}, {"measurement": "Relative residual activity (ciprofol metabolism)", "setting": "[2]; Cpsoralen 5 μM, mean", "value": 86.61, "unit": "%"}, {"measurement": "Relative residual activity (ciprofol metabolism)", "setting": "[2]; Cpsoralen 12.5 μM", "value": "76.45% and 75.70% and 82.09%"}, {"measurement": "Relative residual activity (ciprofol metabolism)", "setting": "[2]; Cpsoralen 12.5 μM, mean", "value": 78.08, "unit": "%"}, {"measurement": "Relative residual activity (ciprofol metabolism)", "setting": "[2]; Cpsoralen 25 μM", "value": "55.36% and 59.73% and 68.81%"}, {"measurement": "Relative residual activity (ciprofol metabolism)", "setting": "[2]; Cpsoralen 25 μM, mean", "value": 61.30, "unit": "%"}, {"measurement": "Relative residual activity (ciprofol metabolism)", "setting": "[2]; Cpsoralen 50 μM", "value": "40.24% and 31.49% and 40.07%"}, {"measurement": "Relative residual activity (ciprofol metabolism)", "setting": "[2]; Cpsoralen 50 μM, mean", "value": 37.27, "unit": "%"}, {"measurement": "Relative residual activity (ciprofol metabolism)", "setting": "[2]; Cpsoralen 75 μM", "value": "32.40% and 26.96% and 29.47%"}, {"measurement": "Relative residual activity (ciprofol metabolism)", "setting": "[2]; Cpsoralen 75 μM, mean", "value": 29.61, "unit": "%"}, {"measurement": "Relative residual activity (ciprofol metabolism)", "setting": "[2]; Cpsoralen 100 μM", "value": "17.05% and 23.45% and 21.45%"}, {"measurement": "Relative residual activity (ciprofol metabolism)", "setting": "[2]; Cpsoralen 100 μM, mean", "value": 20.65, "unit": "%"}, {"measurement": "Relative residual activity (ciprofol metabolism)", "setting": "[2]; Cpsoralen 200 μM", "value": "6.19% and 12.50% and 10.40%"}, {"measurement": "Relative residual activity (ciprofol metabolism)", "setting": "[2]; Cpsoralen 200 μM, mean", "value": 9.70, "unit": "%"}, {"measurement": "degree of inhibitory effect on ciprofol metabolism", "setting": "[2]", "value": "mild inhibitory effects"}, {"measurement": "prolongation of duration of LORR compared with control group", "setting": "SD rats", "value": 16.1, "unit": "%"}, {"measurement": "inhibition of recombinant human CYP2B6 enzyme activity", "setting": "[3]", "value": "moderately inhibit"}]}
{"smiles": "CO[C@H]1/C=C/O[C@@]2(C)Oc3c(C)c(O)c4c(O)c(c(/C=N/N5CCN(C)CC5)c(O)c4c3C2=O)NC(=O)/C(C)=C\\C=C\\[C@H](C)[C@H](O)[C@@H](C)[C@@H](O)[C@@H](C)[C@H](OC(C)=O)[C@@H]1C", "note": "[rifampicin]", "values": [{"measurement": "clinical effect on ciprofol metabolism", "setting": "ciprofol metabolism", "value": "no clinical effect"}]}
